This note sets out measurements from patent publication US20260364215A1, “Radiopharmaceutical Compositions Targeting Ephrin Type-A Receptor 2 and Uses Thereof” (PeptiDream Inc., priority 2022, published 2026).

Each structure is given as a SMILES string. pKd: −log10 of the molar value. Where two headings read alike, the source gives them in different places. Numbered stars: 1 amine (or outer) side, 2 acyl side, 3 side chain; on linkers, the order of the positions; unused ones are H or OH. Bridge positions count the residues as written; N and C are the ends. Square brackets hold non-standard residues; d marks the D form. Side chains are listed from the residue outwards. Peptide text beside a SMILES is read from it. * marks the point of attachment. DOTA(Lu) = O=C1CN2CCN3CCN(CC(=O)*)CCN(CC2)CC(=O)[O][Lu]([O]1)[O]C(=O)C3; NH(1-deoxy-D-glucityl) = OC[C@@H](O)[C@@H](O)[C@H](O)[C@@H](O)CN*; DOTA = O=C(O)CN1CCN(CC(=O)O)CCN(CC(=O)*)CCN(CC(=O)O)CC1; Trp(1-Me,7-Cl) = Cn1cc(C[C@H](N)C(=O)O)c2cccc(Cl)c21; dPhe(3-CONH2) = NC(=O)c1cccc(C[C@@H](N)C(=O)O)c1; NMePhe(3-CN) = CN[C@@H](Cc1cccc(C#N)c1)C(=O)O; Piperazinyl(4-CH2COOH) = O=C(O)CN1CCN(*)CC1; Trp(1-Me) = Cn1cc(C[C@H](N)C(=O)O)c2ccccc21; NMe3Pal = CN[C@@H](Cc1cccnc1)C(=O)O; NMeF = CN[C@@H](Cc1ccccc1)C(=O)O; Gly(cBu) = N[C@H](C(=O)O)C1CCC1; NMeE = CN[C@@H](CCC(=O)O)C(=O)O; Aad = N[C@@H](CCCC(=O)O)C(=O)O; NMeN = CN[C@@H](CC(N)=O)C(=O)O; CO = O=C([*:1])[*:2]

This assay concerns the target T1, Recombinant Human EphA2 Fc Protein (Homo sapiens, UniProt P29317).
T1 construct: purchased Elabscience
Kind of assay: Interaction analysis (kinetics, KD) of peptides and conjugates against EphA2 by SPR, Biacore T200, single-cycle kinetics (Examples B15 and B22). Format: binding. The method in brief: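 Biacore T200 SPR with Fc-tagged human EphA2 captured via anti-human antibody; running buffer HBS-P+ pH 7.4 with 1% DMSO, 25 °C. Five serial dilutions of peptide or conjugate run by single-cycle kinetics; KD from ka and kd after baseline subtraction.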

The mark [1] stands for this setting: conjugates, Biacore T200 according to Example B15, Table B16, read-out: SPR Kd.

By pKd is commonly meant −log10 of the Kd, conventionally taken in molar units.

T1 sequence (P29317 24-534 limits assumed): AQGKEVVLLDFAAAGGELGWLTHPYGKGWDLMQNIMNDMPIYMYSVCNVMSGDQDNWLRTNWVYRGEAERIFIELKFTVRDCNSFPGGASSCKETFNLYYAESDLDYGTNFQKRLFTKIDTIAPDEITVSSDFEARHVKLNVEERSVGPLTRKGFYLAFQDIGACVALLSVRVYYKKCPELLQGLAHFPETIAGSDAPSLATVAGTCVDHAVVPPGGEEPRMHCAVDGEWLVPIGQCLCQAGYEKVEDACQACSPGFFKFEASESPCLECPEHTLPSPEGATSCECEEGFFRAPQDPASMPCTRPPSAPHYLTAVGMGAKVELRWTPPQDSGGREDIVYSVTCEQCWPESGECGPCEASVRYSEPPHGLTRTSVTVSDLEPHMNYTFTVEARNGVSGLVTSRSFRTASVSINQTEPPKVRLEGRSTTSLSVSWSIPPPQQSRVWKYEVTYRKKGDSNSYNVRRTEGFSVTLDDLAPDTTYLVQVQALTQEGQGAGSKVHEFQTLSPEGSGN

On to `C[C@H]1NC(=O)CSC[C@@H](C(=O)N[C@H](CCCCNC(=O)CN2CCN3CCN4CCN(CC2)CC(=O)[O][Lu]([O]C(=O)C3)[O]C(=O)C4)C(N)=O)NC(=O)[C@H](CCCC(N)=O)NC(=O)[C@H]([C@@H](C)O)NC(=O)[C@H](Cc2cn(C)c3ccccc23)NC(=O)[C@H](CCC(=O)NC[C@H](O)[C@@H](O)[C@H](O)[C@H](O)CO)NC(=O)[C@H](Cc2cn(C)c3ccccc23)NC(=O)[C@H](Cc2cccnc2)N(C)C(=O)[C@H](CCCC(N)=O)NC(=O)[C@H](C2CCC2)NC(=O)[C@H](CC(N)=O)NC(=O)[C@H](Cc2cccnc2)N(C)C1=O` [PDC_EphA2-00013705-C302] ({CH2CO}-[dA][NMe3Pal]N[Gly(cBu)][Aad](NH2)[NMe3Pal][Trp(1-Me)]E(NH(1-deoxy-D-glucityl))[Trp(1-Me)]T[Aad](NH2)C[dK](DOTA(Lu))-NH2; thioether N-12), for which the pKd is above 9.00.

With `C[C@@H](O)[C@@H]1NC(=O)[C@H](Cc2cn(C)c3ccccc23)NC(=O)[C@H](CCC(=O)NC[C@H](O)[C@@H](O)[C@H](O)[C@H](O)CO)NC(=O)[C@H](Cc2cn(C)c3c(Cl)cccc23)NC(=O)[C@H](Cc2cccnc2)N(C)C(=O)[C@H](CCCC(N)=O)NC(=O)[C@H](C2CCC2)NC(=O)[C@H](CC(N)=O)NC(=O)[C@H](Cc2cccc(C#N)c2)N(C)C(=O)[C@@H](Cc2cccc(C(N)=O)c2)NC(=O)CSC[C@@H](C(=O)N[C@H](CCCCNC(=O)CN2CCN(CC(=O)O)CCN(CC(=O)O)CCN(CC(=O)O)CC2)C(N)=O)NC(=O)[C@H](CCCC(N)=O)NC1=O.[Lu+3]` [PDC_EphA2-00022614-C302] ({CH2CO}-[dPhe(3-CONH2)][NMePhe(3-CN)]N[Gly(cBu)][Aad](NH2)[NMe3Pal][Trp(1-Me,7-Cl)]E(NH(1-deoxy-D-glucityl))[Trp(1-Me)]T[Aad](NH2)C[dK](DOTA)-NH2; thioether N-12), under setting [1], the pKd was above 9.00.

As to `CC(C)C[C@@H]1NC(=O)[C@H](CC(N)=O)NC(=O)[C@H](Cc2cccnc2)N(C)C(=O)[C@@H](C)NC(=O)CSC[C@@H](C(N)=O)NC(=O)[C@H](CCCC(N)=O)NC(=O)[C@H]([C@@H](C)O)NC(=O)[C@H](Cc2cn(C)c3ccccc23)NC(=O)[C@H](CCCCNC(=O)N2CCN(CC(=O)O)CC2)NC(=O)[C@H](Cc2cn(C)c3c(Cl)cccc23)NC(=O)[C@H](CCC(=O)O)N(C)C(=O)[C@H](CCCCNC(=O)CN2CCN3CCN4CCN(CC2)CC(=O)[O][Lu]([O]C(=O)C3)[O]C(=O)C4)NC1=O` [PDC_EphA2-00026631] ({CH2CO}-[dA][NMe3Pal]NLK(DOTA(Lu))[NMeE][Trp(1-Me,7-Cl)]K([CO-Piperazinyl(4-CH2COOH)])[Trp(1-Me)]T[Aad](NH2)C-NH2; thioether N-12), the pKd was above 9.00.

With `C[C@H]1NC(=O)CSC[C@@H](C(=O)N[C@H](CCC(=O)O)C(N)=O)NC(=O)[C@H](CCCC(N)=O)NC(=O)[C@H]([C@@H](C)O)NC(=O)[C@H](Cc2cn(C)c3ccccc23)NC(=O)[C@H](CCCCNC(=O)N2CCN(CC(=O)O)CC2)NC(=O)[C@H](Cc2cn(C)c3c(Cl)cccc23)NC(=O)[C@H](CCC(=O)O)N(C)C(=O)[C@H](CCCCNC(=O)[C@@H](Cc2ccccc2)NC(=O)CN2CCN3CCN4CCN(CC2)CC(=O)[O][Lu]([O]C(=O)C3)[O]C(=O)C4)NC(=O)[C@H](C2CCC2)NC(=O)[C@H](CC(N)=O)NC(=O)[C@H](Cc2cccnc2)N(C)C1=O` [PDC_EphA2-00027127] ({CH2CO}-[dA][NMe3Pal]N[Gly(cBu)]K([dF-DOTA(Lu)])[NMeE][Trp(1-Me,7-Cl)]K([CO-Piperazinyl(4-CH2COOH)])[Trp(1-Me)]T[Aad](NH2)C[dE]-NH2; thioether N-12), the pKd was above 9.00.

As for `C[C@@H](O)[C@@H]1NC(=O)[C@H](Cc2cn(C)c3ccccc23)NC(=O)[C@H](CCC(=O)NC[C@H](O)[C@@H](O)[C@H](O)[C@H](O)CO)NC(=O)[C@H](Cc2cn(C)c3c(Cl)cccc23)NC(=O)[C@H](Cc2cccnc2)N(C)C(=O)[C@H](CCCC(N)=O)NC(=O)[C@H](C2CCC2)NC(=O)[C@H](CC(N)=O)NC(=O)[C@H](Cc2cccnc2)N(C)C(=O)[C@@H](Cc2cccc(C(N)=O)c2)NC(=O)CSC[C@@H](C(N)=O)NC(=O)[C@H](CCCC(N)=O)NC1=O` [PDC_EphA2-00019437] ({CH2CO}-[dPhe(3-CONH2)][NMe3Pal]N[Gly(cBu)][Aad](NH2)[NMe3Pal][Trp(1-Me,7-Cl)]E(NH(1-deoxy-D-glucityl))[Trp(1-Me)]T[Aad](NH2)C-NH2; thioether N-12), the pKd (peptides, Biacore T200, 25 °C, Table B12, read-out: SPR Kd) was above 9.00.

As for `CN1C(=O)[C@H](CCCC(N)=O)NC(=O)[C@H](C2CCC2)NC(=O)[C@H](CC(N)=O)NC(=O)[C@H](Cc2cccnc2)N(C)C(=O)[C@@H](Cc2cccc(C(N)=O)c2)NC(=O)CSC[C@@H](C(=O)N[C@@H](CCCCNC(=O)CN2CCN3CCN4CCN(CC2)CC(=O)[O][Lu]([O]C(=O)C3)[O]C(=O)C4)C(N)=O)NC(=O)[C@H](Cc2cn(C)c3ccccc23)NC(=O)[C@H](CCCCNC(=O)N2CCN(CC(=O)O)CC2)NC(=O)[C@H](Cc2cn(C)c3c(Cl)cccc23)NC(=O)[C@@H]1CCC(=O)O` [PDC_EphA2-00026606-C301] ({CH2CO}-[dPhe(3-CONH2)][NMe3Pal]N[Gly(cBu)][Aad](NH2)[NMeE][Trp(1-Me,7-Cl)]K([CO-Piperazinyl(4-CH2COOH)])[Trp(1-Me)]CK(DOTA(Lu))-NH2; thioether N-10), the pKd was above 9.00.

In the case of `CC(C)C[C@@H]1NC(=O)[C@H](CC(N)=O)NC(=O)[C@H](Cc2cccnc2)N(C)C(=O)[C@@H](C)NC(=O)CSC[C@@H](C(N)=O)NC(=O)[C@H](CCCCNC(=O)CN2CCN3CCN4CCN(CC2)CC(=O)[O][Lu]([O]C(=O)C3)[O]C(=O)C4)NC(=O)[C@H]([C@@H](C)O)NC(=O)[C@H](Cc2cn(C)c3ccccc23)NC(=O)[C@H](CCCCNC(=O)N2CCN(CC(=O)O)CC2)NC(=O)[C@H](Cc2cn(C)c3c(Cl)cccc23)NC(=O)[C@H](CCC(=O)O)N(C)C(=O)[C@H](CCCC(N)=O)NC1=O` [PDC_EphA2-00026633] ({CH2CO}-[dA][NMe3Pal]NL[Aad](NH2)[NMeE][Trp(1-Me,7-Cl)]K([CO-Piperazinyl(4-CH2COOH)])[Trp(1-Me)]TK(DOTA(Lu))C-NH2; thioether N-12), the pKd was above 9.00.

`C[C@H]1NC(=O)CSC[C@@H](C(N)=O)NC(=O)[C@H](CCCCNC(=O)[C@@H](CCC(=O)O)NC(=O)CN2CCN3CCN4CCN(CC2)CC(=O)[O][Lu]([O]C(=O)C3)[O]C(=O)C4)NC(=O)[C@H]([C@@H](C)O)NC(=O)[C@H](Cc2cn(C)c3ccccc23)NC(=O)[C@H](CCCCNC(=O)N2CCN(CC(=O)O)CC2)NC(=O)[C@H](Cc2cn(C)c3c(Cl)cccc23)NC(=O)[C@H](CCC(=O)O)N(C)C(=O)[C@H](CCCC(N)=O)NC(=O)[C@H](C2CCC2)NC(=O)[C@H](CC(N)=O)NC(=O)[C@H](Cc2cccnc2)N(C)C1=O` [PDC_EphA2-00027128] ({CH2CO}-[dA][NMe3Pal]N[Gly(cBu)][Aad](NH2)[NMeE][Trp(1-Me,7-Cl)]K([CO-Piperazinyl(4-CH2COOH)])[Trp(1-Me)]TK([dE-DOTA(Lu)])C-NH2; thioether N-12): the pKd was above 9.00.

As for `C[C@H]1NC(=O)CSC[C@@H](C(=O)N[C@H](CCC(=O)O)C(N)=O)NC(=O)[C@H](CCCC(N)=O)NC(=O)[C@H]([C@@H](C)O)NC(=O)[C@H](Cc2cn(C)c3ccccc23)NC(=O)[C@H](CCCCNC(=O)N2CCN(CC(=O)O)CC2)NC(=O)[C@H](Cc2cn(C)c3c(Cl)cccc23)NC(=O)[C@H](CCC(=O)O)N(C)C(=O)[C@H](CCCCNC(=O)[C@@H](CCC(=O)O)NC(=O)CN2CCN(CC(=O)O)CCN(CC(=O)O)CCN(CC(=O)O)CC2)NC(=O)[C@H](C2CCC2)NC(=O)[C@H](CC(N)=O)NC(=O)[C@H](Cc2cccnc2)N(C)C1=O.[Lu+3]` [PDC_EphA2-00027126] ({CH2CO}-[dA][NMe3Pal]N[Gly(cBu)]K([dE-DOTA])[NMeE][Trp(1-Me,7-Cl)]K([CO-Piperazinyl(4-CH2COOH)])[Trp(1-Me)]T[Aad](NH2)C[dE]-NH2; thioether N-12), the pKd under setting [1] was above 9.00.

Regarding `CC(C)[C@@H]1NC(=O)[C@H](Cc2cn(C)c3ccccc23)NC(=O)[C@H](CC(N)=O)N(C)C(=O)[C@H](CCCC(N)=O)NC(=O)[C@H](C2CCC2)NC(=O)[C@H](CC(N)=O)NC(=O)[C@H](Cc2ccccc2)N(C)C(=O)[C@@H](C)NC(=O)CSC[C@@H](C(=O)N[C@H](CCCCNC(=O)CN2CCN(CC(=O)O)CCN(CC(=O)O)CCN(CC(=O)O)CC2)C(=O)O)NC(=O)[C@H](CCCC(N)=O)NC(=O)[C@H]([C@@H](C)O)NC(=O)[C@H](Cc2cn(C)c3ccccc23)NC1=O.[Lu+3]` [PDC_EphA2-00026773] ({CH2CO}-[dA][NMeF]N[Gly(cBu)][Aad](NH2)[NMeN][Trp(1-Me)]V[Trp(1-Me)]T[Aad](NH2)C[dK](DOTA)-OH; thioether N-12), under setting [1], the pKd is above 9.00.

For the molecule `C[C@H]1NC(=O)CSC[C@@H](C(N)=O)NC(=O)[C@H](CCCCNC(=O)[C@@H](Cc2ccccc2)NC(=O)CN2CCN(CC(=O)O)CCN(CC(=O)O)CCN(CC(=O)O)CC2)NC(=O)[C@H]([C@@H](C)O)NC(=O)[C@H](Cc2cn(C)c3ccccc23)NC(=O)[C@H](CCCCNC(=O)N2CCN(CC(=O)O)CC2)NC(=O)[C@H](Cc2cn(C)c3c(Cl)cccc23)NC(=O)[C@H](CCC(=O)O)N(C)C(=O)[C@H](CCCC(N)=O)NC(=O)[C@H](C2CCC2)NC(=O)[C@H](CC(N)=O)NC(=O)[C@H](Cc2cccnc2)N(C)C1=O.[Lu+3]` [PDC_EphA2-00027129] ({CH2CO}-[dA][NMe3Pal]N[Gly(cBu)][Aad](NH2)[NMeE][Trp(1-Me,7-Cl)]K([CO-Piperazinyl(4-CH2COOH)])[Trp(1-Me)]TK([dF-DOTA])C-NH2; thioether N-12), the pKd under setting [1] is above 9.00.
